Measured values from US20120100204A1, “TGF-Beta Stimulating Agent Compositions and Combinations” (TCP INNOVATIONS LTD, priority 2007, published 2012).
Marks after values point to notes of the source that are not given here.

How the values were obtained:
tgfb2 mRNA = tgfb2 mRNA level by quantitative PCR in human aortic vascular smooth muscle cells; format: cell-based; conditions: 24 hrs
Method: (1995) Cardiovasc. Res. 29:848-55). […] The cells were then incubated for either 24 hrs or 72 hrs depending on the experiment. All treatment conditions were established in triplicate. The level of mRNA for tgfb1, tgfb2 and tgfb3 were estimated by quantitative PCR. The media was removed and RNA was carefully prepared using the Ambion RNAqueous4PCR kit (Ambion#1914) in accordance with the manufacturer's instructions. The purity of the RNA and the quantity was assessed spectrophotometrically. […] This analysis results in both a gel-like image as well as electrophoretic data. Indications of RNA degradation are: (a) decreasing ratio of ribosomal bands (b) additional peaks bellow the ribosomal bands (c) Decrease in overall RNA signal (d) shift towards shorter fragments. […] Next, the RNA was converted to cDNA using the ABI High-Capacity cDNA Archive Kit, in accordance with manufacturer's instructions. […] Samples were vortexed to ensure thorough mixing. cDNA was aliquoted into ABI 384 well plates using a multi-channel pipette, 4.5 μl of sample into each well. Samples were assayed in triplicate (that is, nine determinations in total were made for each condition, being three separate assays on each of three replicate culture wells). The assay mix and Universal Master Mix were prepared and aliquoted across the 384 well plates 5.5 μl in each well, using a single channel pipette. […] Universal Master Mix=5 μl; cDNA=4.5 μl. […] Quantitative PCR was performed using several primer/probe sets. […] In all quantitative PCR experiments, several additional controls were included: firstly, a control for each sample is run with no reverse transcription to ensure the mRNA sample is not contaminated with genomic DNA (although the manual design probe/primer sets were all selected to cross an exon/exon boundary, ensuring no detectable amplicon is produced from genomic DNA templates). […]

[1] = test system: human aortic vascular smooth muscle cells; experiment: toxicity to cultured smooth muscle cells; format: cell-based
Method: The cells were cultured (37° C.; 5% CO2) in DMEM+20% foetal calf serum (FCS), and subcultured every 5 days at 1:2 dilution, using 0.02% trypsin/EDTA (Gibco).
For the experiments, the cells were subcultured into 12-well cluster plates at 1×10^5 cells/cm^2, and allowed to grow for 24 hrs. […] The cells were then incubated for either 24 hrs or 72 hrs depending on the experiment. All treatment conditions were established in triplicate.

[2] = critical micelle concentration; format: physicochemical; conditions: in the presence of 20% foetal calf serum
DBA/1 mice = experiment: collagen-induced arthritis, footpad thickness; format: in vivo; conditions: from the booster injection onwards, Tamoxifen 1 mg/kg/day p.o, aspirin 30 mg/kg/day p.o
Method: (§1) Collagen-induced arthritis was induced in adult male DBA/1 mice as previously described (Courtenay et al. (1980) Nature 283:666-8). Adult (12 week old) male DBA/1 mice were divided into groups of six animals. Mice received 100 μg per mouse of bovine type II collagen (Sigma) in Freunds Complete Adjuvant (FCA) by the subcutaneous route, while a control group received an identical injection of type I collagen in FCA. Twenty-one days later, all groups of mice received an intraperitoneal booster injection containing 100 μg per mouse of the same collagen type as previously, but in the absence of adjuvant. […] Foodpad thickness was determined each day using a digital caliper EC1507 (Moore & Wright) accurate to 0.01 mm. The thickness of each footpad was determined three times on each day by a single operator blind to the treatment condition of the mouse, and the footpad thickness of each mouse on each day was reported as the mean for the three measurements for all four paws. Errors represent the standard error of the mean among the six animals in each group.

[3] = test system: anti-collagen type II antibodies; experiment: direct ELISA for anti-collagen type II antibodies in serum of collagen-induced arthritis mice; format: in vivo; conditions: day 39
Method: as §1
A direct ELISA for anti-collagen type II antibodies was used as an alternative assessment of the autoimmune response. Bovine type II collagen was coated onto Maxisorp 96-well ELISA plate wells (Nunc) at 1 μg/well in 50 μl of 50 mM sodium carbonate pH9.0 for 2 hours at 4° C. Wells were blocked with 5% Tween-20/5% sucrose in phosphate-buffered saline for 1 hour at room temperature. Mouse serum at various dilutions was incubated with the collagen-coated wells for 2 hours at room temperature. After three quick washes with tris-buffered saline +0.05% Tween-20, bound murine antibody was detected using a range of different anti-mouse IgG peroxidase conjugates (Pan-IgG A-9174 Sigma Chemical Co; IgA A-4789 Sigma Chemical Company; IgG1, G2a, G2b and G3 Southern Biotechnology) at 1:5000 dilution in tris-buffered saline +0.05% Tween-20 for 1 hour at room temperature. After three further washes, bound peroxidase label was visualised with K-BLUE chromogenic substrate (Skybio, Ltd.) for 20 minutes at room temperature, and the concentration of murine anti-collagen IgG in the serum quantitated by interpolating a standard curve constructed using known concentrations of the murine monoclonal anti-collagen type II IgG, CIICI (NIH Developmental Studies Hybridoma Bank).

[4] = translated from the relative risk; cited from earlier work
[5] = Tamoxifen treatment; cited from earlier work
[6] = pro-thrombin time (PTT) in men with coronary artery disease; conditions: men with coronary heart disease, 3 months, Tamoxifen 20 mg once daily, vs baseline
Method: Patients continued with all other medications (statins, ACE inhibitors, beta blockers, calcium channel blockers, diuretics etc), but no patients were taking warfarin or tirofiban.
The coagulant status of the individuals was assessed using the pro-thrombin time (PTT, measured clinically; Hinchingbrooke Hospital, UK). PTT was measured twice, one week apart, prior to beginning the study, and then after 90 days treatment. In each case, each patient acted as their own control, and the impact of the treatment on PTT was assessed using a paired Student's t-test comparing the PTT at 90 days with the average of the two baseline determinations.

SMILES | Level of mRNA, estimated by qPCR: tgfb2 (tgfb2 mRNA; 10 μM A) [fold-change] | Level of mRNA, estimated by qPCR: tgfb2 (tgfb2 mRNA; 33 μM A) [fold-change] | Level of mRNA, estimated by qPCR: tgfb2 (tgfb2 mRNA; 100 μM A) [fold-change] | concentrations toxic to the cells ([1]; after 24 hrs) | doses toxic to the cells ([1]; after 72 hrs) | critical micelle concentration [2] | reduction of the maximal collagen-II induced footpad swelling (DBA/1 mice) [%] | Pan IgG binding to bovine collagen II, median concentration in serum ([3]; DBA/1 mice with collagen-induced arthritis) [µg/mL] | IgG1 binding to bovine collagen II, median absorbance ([3]; neat serum) | IgG2a binding to bovine collagen II, median absorbance ([3]; neat serum) | IgG2b binding to bovine collagen II, median absorbance ([3]; neat serum) | IgG3 binding to bovine collagen II, median absorbance ([3]; neat serum) | reduction in risk of death from myocardial infarction [4] [%] | endothelial function, a surrogate marker of atherosclerotic disease burden [5] | change in pro-thrombin time ([6]; Example 5, aspirin 75 mg once daily) | change in pro-thrombin time ([6]; Example 6, clopidogrel 75 mg once daily)
CC(=O)Oc1ccccc1C(=O)O [Aspirin, acetylsalicylic acid] | 0.92 ± 0.10 | 1.00 ± 0.17 | 1.03 ± 0.16 |  |  |  |  |  |  |  |  |  |  |  |  | 
CC/C(=C(\c1ccccc1)c1ccc(OCCN(C)C)cc1)c1ccccc1 [Tamoxifen] |  |  |  | above 33 μM | above 10 μM | approximately 50 μM | 36 | 181 | <0.05* | 0.081* | 0.482* | 0.069* | 33 | improved endothelial function | +17% | +19%
